Target: T1, ITK (Jurkat or Molt4 cells) (Homo sapiens, UniProt Q08881)
T1 construct: either human Jurkat (Clone E6-1 ATCC TIB-152) or Motl4 (ATCC CRL-1552), were plated; endogenous in cells; host or cells: Jurkat Clone E6-1 (ATCC TIB-152) or Molt4 (ATCC CRL-1552)
T1 sequence (Q08881 1-620): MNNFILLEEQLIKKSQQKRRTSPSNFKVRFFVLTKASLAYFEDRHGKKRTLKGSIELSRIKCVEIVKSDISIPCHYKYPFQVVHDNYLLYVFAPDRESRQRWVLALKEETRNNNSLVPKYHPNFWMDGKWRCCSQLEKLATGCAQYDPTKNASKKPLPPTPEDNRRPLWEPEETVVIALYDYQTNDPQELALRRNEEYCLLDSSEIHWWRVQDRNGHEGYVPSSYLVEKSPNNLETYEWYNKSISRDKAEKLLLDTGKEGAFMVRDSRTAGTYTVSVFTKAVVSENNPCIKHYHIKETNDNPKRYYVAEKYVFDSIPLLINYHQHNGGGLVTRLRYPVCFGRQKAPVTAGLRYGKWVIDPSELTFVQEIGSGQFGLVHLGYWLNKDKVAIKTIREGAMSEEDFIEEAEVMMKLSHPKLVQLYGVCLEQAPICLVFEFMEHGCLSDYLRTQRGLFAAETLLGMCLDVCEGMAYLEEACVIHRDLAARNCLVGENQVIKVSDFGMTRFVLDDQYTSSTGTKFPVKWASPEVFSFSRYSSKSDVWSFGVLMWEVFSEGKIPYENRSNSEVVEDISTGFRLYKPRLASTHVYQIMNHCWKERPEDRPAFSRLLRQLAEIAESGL
Experiment: ITK Degradation MSD (Meso Scale Discovery) Assay
Format: cell-based
Details: 4 or 6 hrs incubation; for DC50: best fit IC50 used as DC50
Method: Compound dilution series (7-point, 5-fold dilutions in DMSO, rows B—H with replicate in Column 1/2, 3/4, 5/6, 7, and 8 at 2000× the final required concentrations were prepared in 96-well plate (Falcon, cat. no. 353077). Row A, Column 1-8 were control DMSO. The 2000× solutions ranged from 2 mM to 128 nM (final assay concentration range 1 μM to […]). The 2000×solutions were added to cells in 10 μL volume, for a final DMSO concentration of 0.5% and final assay compound concentration of 1×. For the cells, either human Jurkat (Clone E6-1 ATCC TIB-152) or Motl4 (ATCC CRL-1552), were plated at 1×10^6 cells/mL, 100 μL/well ([…]) in complete RPMI (10% FBS, 1% L-glutamine). The cells were incubated with compounds 26-29 for 4 or 6 hrs at 32° C./6% CO2.
Following incubation, plates were centrifuged at 1200 rpm for 5 min. Supernatant was removed and 50 μL of cell lysis buffer (MSD Tris lysis buffer (R60TX), complete Mini EDTA-free protease inhibitor (Sigma 11836170001), Protease Inhibitor Cocktail (Sigma, P2714), Phosphatase Inhibitor Cocktail 2 and 3 (Sigma, P5726 and P0044), Benzonase (Sigma, E1014)) was added to each well. Plate was sealed and shook at 4° C. for 30 min. Plate was centrifuged and 45 μL was removed for plate assay.
Assay plate preparation: Meso Scale Discovery (MSD) multi-array sm spot 96-well plates (Goat anti-Rabbit L^45-RA), were blocked with 3% BSA blocking buffer (3% Bovine Serum Albumin (Sigma A3059)+TBS 0.2% Tween-20) for one hour with gentle rocking at room temperature. Plate was then washed with 200 μL of 1×TBST (TBS 0.2% Tween-20) three times. After the last wash, all liquid was removed and 50 μL per well of capture antibody (abcam ITK Y402-ab32507) was added to plate at a 1:1000 dilution in blocking buffer (see above). Plate was sealed and rocked at room temperature for 2 hrs. Plate was then washed three times with 200 μL of 1×TBST. After the last wash, all liquid was removed and 45 μL of cell lysate (from above) was added to plate. Plate was sealed and rocked overnight at 4° C. The next day, cell lysates were removed, and assay plate was washed three times with 200 μL of 1×TBST. After the last wash, liquid was removed and detection antibody (CST ITK (2F12) #2380) was added at 50 μL per well at a dilution of 1:1000 in blocking buffer. Plate was sealed and rocked at room temperature for 2 hrs. Plate was washed three times with 200 μL of 1×TBST. After the last wash, all liquid was removed, MSD […] sulfo tag (R32AC-1) was diluted to 1:1000 in blocking buffer. 50 μL was added to each well on the plate. Plate was sealed and incubated at room temperature for one hour. Plate was washed three times with 200 μL of 1×TBST. After last wash, all liquid was removed and 150 μL of 1×MSD Read Buffer T (R92PC) was then added to each well for ECL read out.
For reading ECL signal, plate was read on a Meso Scale Discovery (MSD) MESO Sector S 600 plate reader. Percent ITK was then calculated as described below.
Percent ITK remaining per sample was calculated as follows: […]
Using Graphpad Prism, % ITK remaining values were plotted as a function of compound concentration. To determine DC50 and Dmax values, resulting curves were fit to the Prism curve-fitting equation “log(inhibitor) vs response−Variable slope (four parameters)” (reported best fit value IC50 used as DC50).

SMILES | Dmax [%] | DC50 [nM]
Cc1ncsc1-c1ccc([C@H](C)NC(=O)[C@@H]2C[C@@H](O)CN2C(=O)[C@@H](NC(=O)CN2CCN(CC(=O)N3CC([C@@H](c4ccccc4)n4cc(NC(=O)c5n[nH]c6c5C[C@@H]5C(F)(F)[C@]5(C)C6)cn4)C3)CC2)C(C)(C)C)cc1 [Compound 24, (4aS,5aR)-5,5-difluoro-N-(1-((S)-(1-(2-(4-(2-(((S)-1-((2S,4R)-4-hydroxy-2-(((S)-1-(4-(4-methylthiazol-5-yl)phenyl)ethyl)carbamoyl)pyrrolidin-1-yl)-3,3-dimethyl-1-oxobutan-2-yl)amino)-2-oxoethyl)piperazin-1-yl)acetyl)azetidin-3-yl)(phenyl)methyl)-1H-pyrazol-4-yl)-5a-methyl-1,4,4a,5,5a,6-hexahydrocyclopropa[f]indazole-3-carboxamide] | 93 | 92.7
Cc1ncsc1-c1ccc(CNC(=O)[C@@H]2C[C@@H](O)CN2C(=O)[C@@H](NC(=O)CCOCCOCCOCCC(=O)N2CC([C@@H](c3ccccc3)n3cc(NC(=O)c4n[nH]c5c4C[C@@H]4C(F)(F)[C@]4(C)C5)cn3)C2)C(C)(C)C)cc1 [Compound 15, (4aS,5aR)-5,5-difluoro-N-(1-((S)-(1-((S)-15-((2S,4R)-4-hydroxy-2-((4-(4-methylthiazol-5-yl)benzyl)carbamoyl)pyrrolidine-1-carbonyl)-16,16-dimethyl-13-oxo-4,7,10-trioxa-14-azaheptadecanoyl)azetidin-3-yl)(phenyl)methyl)-1H-pyrazol-4-yl)-5a-methyl-1,4,4a,5,5a,6-hexahydrocyclopropa[f]indazole-3-carboxamide] | – | 54.7
CN[C@@H](C)C(=O)N[C@H](C(=O)N1CCC[C@H]1c1nc(C(=O)c2cccc(OCCCCCCN3CC([C@@H](c4ccccc4)n4cc(NC(=O)c5n[nH]c6c5C[C@@H]5C(F)(F)[C@]5(C)C6)cn4)C3)c2)cs1)C1CCCCC1 [Compound 9, (4aS,5aR)—N-(1-((S)-(1-(6-(3-(2-((S)-1-((S)-2-cyclohexyl-2-((S)-2-(methylamino)propanamido)acetyl)pyrrolidin-2-yl)thiazole-4-carbonyl)phenoxy)hexyl)azetidin-3-yl)(phenyl)methyl)-1H-pyrazol-4-yl)-5,5-difluoro-5a-methyl-1,4,4a,5,5a,6-hexahydrocyclopropa[f]indazole-3-carboxamide] | – | 52.9
CN[C@@H](C)C(=O)N[C@H](C(=O)N1C[C@@H](NC(=O)CCOCCOCCOCCOCCC(=O)N2CC([C@@H](c3ccccc3)n3cc(NC(=O)c4n[nH]c5c4C[C@@H]4C(F)(F)[C@]4(C)C5)cn3)C2)C[C@H]1C(=O)N[C@@H]1CCCc2ccccc21)C1CCCCC1 [Compound 2, (4aS,5aR)—N-(1-((S)-(1-(16-(((3S,5S)-1-((S)-2-cyclohexyl-2-((S)-2-(methylamino)propanamido)acetyl)-5-(((R)-1,2,3,4-tetrahydronaphthalen-1-yl)carbamoyl)pyrrolidin-3-yl)amino)-16-oxo-4,7,10,13-tetraoxahexadecanoyl)azetidin-3-yl)(phenyl)methyl)-1H-pyrazol-4-yl)-5,5-difluoro-5a-methyl-1,4,4a,5,5a,6-hexahydrocyclopropa[f]indazole-3-carboxamide] | – | 79.7
CN[C@@H](C)C(=O)N[C@H](C(=O)N1CCC[C@H]1c1nc(C(=O)c2cccc(OCCOCCOCCOCCOCCC(=O)N3CC([C@@H](c4ccccc4)n4cc(NC(=O)c5n[nH]c6c5C[C@@H]5C(F)(F)[C@]5(C)C6)cn4)C3)c2)cs1)C1CCCCC1 [Compound 6, (4aS,5aR)—N-(1-((S)-(1-(1-(3-(2-((S)-1-((S)-2-cyclohexyl-2-((S)-2-(methylamino)propanamido)acetyl)pyrrolidin-2-yl)thiazole-4-carbonyl)phenoxy)-3,6,9,12-tetraoxapentadecan-15-oyl)azetidin-3-yl)(phenyl)methyl)-1H-pyrazol-4-yl)-5,5-difluoro-5a-methyl-1,4,4a,5,5a,6-hexahydrocyclopropa[f]indazole-3-carboxamide] | – | 14
CN[C@@H](C)C(=O)N[C@H](C(=O)N1CCC[C@H]1c1nc(C(=O)c2cccc(OCCOCCN3CC([C@@H](c4ccccc4)n4cc(NC(=O)c5n[nH]c6c5C[C@@H]5C(F)(F)[C@]5(C)C6)cn4)C3)c2)cs1)C1CCCCC1 [Compound 11, (4aS,5aR)—N-(1-((S)-(1-(2-(2-(3-(2-((S)-1-((S)-2-cyclohexyl-2-((S)-2-(methylamino)propanamido)acetyl)pyrrolidin-2-yl)thiazole-4-carbonyl)phenoxy)ethoxy)ethyl)azetidin-3-yl)(phenyl)methyl)-1H-pyrazol-4-yl)-5,5-difluoro-5a-methyl-1,4,4a,5,5a,6-hexahydrocyclopropa[f]indazole-3-carboxamide] | – | 10.7
Cc1ncsc1-c1ccc([C@H](C)NC(=O)[C@@H]2C[C@@H](O)CN2C(=O)[C@@H](NC(=O)c2ncc(N3CCC(C(=O)N4CC([C@@H](c5ccccc5)n5cc(NC(=O)c6n[nH]c7c6C[C@@H]6C(F)(F)[C@]6(C)C7)cn5)C4)CC3)cn2)C(C)(C)C)cc1 [Compound 21, (4aS,5aR)-5,5-difluoro-N-(1-((S)-(1-(1-(2-(((S)-1-((2S,4R)-4-hydroxy-2-(((S)-1-(4-(4-methylthiazol-5-yl)phenyl)ethyl)carbamoyl)pyrrolidin-1-yl)-3,3-dimethyl-1-oxobutan-2-yl)carbamoyl)pyrimidin-5-yl)piperidine-4-carbonyl)azetidin-3-yl)(phenyl)methyl)-1H-pyrazol-4-yl)-5a-methyl-1,4,4a,5,5a,6-hexahydrocyclopropa[f]indazole-3-carboxamide] | 95 | 64.7
CN[C@@H](C)C(=O)N[C@H](C(=O)N1CCCC1c1nc(C(=O)c2cccc(OCCOCCOCCOCCOCCOCCC(=O)N3CC([C@@H](c4ccccc4)n4cc(NC(=O)c5n[nH]c6c5C[C@@H]5C(F)(F)[C@]5(C)C6)cn4)C3)c2)cs1)C1CCCCC1 (stereo in doubt) [Compound 4, (4aS,5aR)—N-(1-((S)-(1-(1-(3-(2-((R)-1-((S)-2-cyclohexyl-2-((S)-2-(methylamino)propanamido)acetyl)pyrrolidin-2-yl)thiazole-4-carbonyl)phenoxy)-3,6,9,12,15-pentaoxaoctadecan-18-oyl)azetidin-3-yl)(phenyl)methyl)-1H-pyrazol-4-yl)-5,5-difluoro-5a-methyl-1,4,4a,5,5a,6-hexahydrocyclopropa[f]indazole-3-carboxamide] | – | 13.6
